Source: ChEMBL document CHEMBL5442379, “ASAP - SARS-CoV-2 nsp3 macrodomain single point” (2024)

Target: Replicase polyprotein 1ab (Severe acute respiratory syndrome coronavirus 2) (UniProt P0DTD1)
Description: Functional biochemical assay to identify treatments for viral infectious disease that targets SARS-COV-2 nsp3 macrodomain, whereby the mechanism of action displaces an ADP-Ribose modified peptide from the binding site. Utilizing a time-resolved fluorescence method to measure binding by reading the emitted fluorescence intensity in two wavelengths.

Compound: CC(C)[C@@H](CCN(C)C(=O)c1nn2cccnc2c1Cl)Nc1ncnc2[nH]ccc12
- inhibition (Concentration 49.75 uM, Number of replicates 2.0, Standard deviation 6.794 %): 0.844%
- inhibition (Concentration 99.5 uM, Number of replicates 2.0, Standard deviation 0.494 %): 1.65%

Compound: Cc1cncc(NCc2csc(-c3ccccn3)n2)c1
- inhibition (Concentration 50.0 uM, Number of replicates 2.0, Standard deviation 0.194 %): -5.02%

Compound: CN(c1ncnc2[nH]ccc12)[C@H]1CCN(S(C)(=O)=O)C1
- inhibition (Concentration 50.0 uM, Number of replicates 2.0, Standard deviation 5.861 %): -0.371%

Compound: O=C(NC[C@@H]1CCCCN1)c1cnn2ccc(C3CCN(C(=O)c4ccccc4)CC3)cc12
- inhibition (Concentration 49.75 uM, Number of replicates 2.0, Standard deviation 3.98 %): -5.92%
- inhibition (Concentration 99.5 uM, Number of replicates 2.0, Standard deviation 0.917 %): -2.57%

Compound: Cc1ncc(NCc2cnc3c(c2)NC(=O)CO3)cc1Cl
- inhibition (Concentration 50.0 uM, Number of replicates 2.0, Standard deviation 2.461 %): -0.368%

Compound: O=C(Nc1ccc(O)cc1)Nc1ccc(Oc2ccccc2)cc1
- inhibition (Concentration 50.0 uM, Number of replicates 2.0, Standard deviation 2.274 %): -3.31%

Compound: Oc1ccccc1CNc1ncnc2[nH]cnc12
- inhibition (Concentration 50.0 uM, Number of replicates 2.0, Standard deviation 0.892 %): 1.9%

Compound: NCC(F)(F)CNC(=O)c1ccc(NC(=O)Nc2ccccc2)cc1
- inhibition (Concentration 49.75 uM, Number of replicates 2.0, Standard deviation 4.8 %): -0.965%
- inhibition (Concentration 99.5 uM, Number of replicates 2.0, Standard deviation 1.089 %): -1.17%

Compound: c1ccc(CN2CCO[C@@H](CNc3ncnc4nc[nH]c34)C2)cc1
- inhibition (Concentration 50.0 uM, Number of replicates 2.0, Standard deviation 1.424 %): -2.44%

Compound: COCc1cc(CNc2nc3[nH]cnc3c(=O)[nH]2)on1
- inhibition (Concentration 50.0 uM, Number of replicates 2.0, Standard deviation 1.926 %): 2.98%

Compound: NS(=O)(=O)N1CCCN(c2ncnc3[nH]c(I)cc23)CC1
- inhibition (Concentration 50.0 uM, Number of replicates 2.0, Standard deviation 1.583 %): 2.29%

Compound: CC(C)[C@@H](CO)[C@@H](Nc1ncnc2[nH]ccc12)C(C)C
- inhibition (Concentration 49.75 uM, Number of replicates 2.0, Standard deviation 2.34 %): 6.65%
- inhibition (Concentration 99.5 uM, Number of replicates 2.0, Standard deviation 2.712 %): 13.1%

Compound: Cc1[nH]nc(C(=O)N2CCC(c3ccn4ncc(C(=O)N5CCCCC5)c4c3)CC2)c1C
- inhibition (Concentration 49.75 uM, Number of replicates 2.0, Standard deviation 4.553 %): 18%
- inhibition (Concentration 99.5 uM, Number of replicates 2.0, Standard deviation 2.151 %): 33.8%

Compound: O=C(O)c1cnc(C(=O)N2CCC(c3ccn4ncc(C(=O)N5CCCCC5)c4c3)CC2)cn1
- inhibition (Concentration 49.75 uM, Number of replicates 2.0, Standard deviation 0.482 %): 27.5%
- inhibition (Concentration 99.5 uM, Number of replicates 2.0, Standard deviation 1.164 %): 46.4%

Compound: O=C1NC[C@@H](C(=O)N(CCC(=O)N2CCNCC2)Cc2cccc(Cl)c2)O1
- inhibition (Concentration 49.75 uM, Number of replicates 2.0, Standard deviation 2.173 %): 0.125%
- inhibition (Concentration 99.5 uM, Number of replicates 2.0, Standard deviation 10.437 %): 5.24%

Compound: CSc1ccccc1NC(=O)c1ncnc2[nH]ccc12
- inhibition (Concentration 50.0 uM, Number of replicates 2.0, Standard deviation 3.62 %): -5.8%

Compound: O=C(c1cc(O)ccn1)N1CCC(c2ccn3ncc(C(=O)N4CCCCC4)c3c2)CC1
- inhibition (Concentration 49.75 uM, Number of replicates 2.0, Standard deviation 1.167 %): 17.6%
- inhibition (Concentration 99.5 uM, Number of replicates 2.0, Standard deviation 1.673 %): 32.2%

Compound: O=C(NCc1cc2n(n1)CCCC2)c1cc2cncnc2[nH]1
- inhibition (Concentration 50.0 uM, Number of replicates 4.0, Standard deviation 10.451 %): 4.17%

Compound: Fc1ccc(Oc2cc(CNc3ncnc4nc[nH]c34)ccn2)cc1
- inhibition (Concentration 50.0 uM, Number of replicates 2.0, Standard deviation 7.991 %): 2.01%

Compound: O=C(O)c1ccc(C(=O)N2CCC(c3ccn4ncc(C(=O)N5CCCCC5)c4c3)CC2)o1
- inhibition (Concentration 49.75 uM, Number of replicates 2.0, Standard deviation 3.483 %): 40.5%
- inhibition (Concentration 99.5 uM, Number of replicates 2.0, Standard deviation 5.512 %): 58.1%

Compound: Cc1cc(CNC(=O)c2cnn3ccc(C4CCN(C(=O)c5ccccc5)CC4)cc23)n(C)n1
- inhibition (Concentration 49.75 uM, Number of replicates 2.0, Standard deviation 3.014 %): -5.51%
- inhibition (Concentration 99.5 uM, Number of replicates 2.0, Standard deviation 0.205 %): -8.12%

Compound: Nc1c(O)cccc1C(=O)N(CCC(=O)N1CCNCC1)Cc1cccc(Cl)c1
- inhibition (Concentration 49.75 uM, Number of replicates 2.0, Standard deviation 0.165 %): -1.24%
- inhibition (Concentration 99.5 uM, Number of replicates 2.0, Standard deviation 3.032 %): 1.46%

Compound: Cn1ncc2c(NCc3ncccc3O)ncnc21
- inhibition (Concentration 50.0 uM, Number of replicates 2.0, Standard deviation 16.275 %): 3.89%

Compound: CC(C)[C@H]1CN(c2ncnc3[nH]ccc23)[C@H]1C(C)C
- inhibition (Concentration 49.75 uM, Number of replicates 2.0, Standard deviation 1.709 %): 0.348%
- inhibition (Concentration 99.5 uM, Number of replicates 2.0, Standard deviation 1.351 %): -2.2%

Compound: Cn1c(C(=O)NCCn2cccc2)cc2c(=O)n3ccccc3nc21
- inhibition (Concentration 50.0 uM, Number of replicates 2.0, Standard deviation 2.478 %): 2.26%

Compound: O=C(NCc1nc2cccnc2[nH]1)c1cnc2nc[nH]c(=O)c2c1
- inhibition (Concentration 50.0 uM, Number of replicates 2.0, Standard deviation 1.79 %): -1.99%
- inhibition (Concentration 100.0 uM, Number of replicates 2.0, Standard deviation 3.352 %): 7.03%

Compound: Cc1cnc(CCNc2ncnc3[nH]ncc23)c(C)c1
- inhibition (Concentration 50.0 uM, Number of replicates 2.0, Standard deviation 4.479 %): 4.34%

Compound: O=C1C[C@@]2(CCCN(c3ncnc4[nH]ccc34)C2)CN1
- inhibition (Concentration 50.0 uM, Number of replicates 2.0, Standard deviation 0.483 %): -2.45%

Compound: Cc1cccc2oc(CCNc3ncnc4[nH]ccc34)nc12
- inhibition (Concentration 50.0 uM, Number of replicates 2.0, Standard deviation 6.123 %): -3.26%

Compound: C[C@@H](CO)Nc1ncnc2[nH]c(C(=O)OC(C)(C)C)cc12
- inhibition (Concentration 50.0 uM, Number of replicates 2.0, Standard deviation 12.843 %): 10.7%

Compound: CN(Cc1nccn1Cc1ccccc1)c1ncnc2[nH]ccc12
- inhibition (Concentration 50.0 uM, Number of replicates 2.0, Standard deviation 2.394 %): -7.22%
- inhibition (Concentration 100.0 uM, Number of replicates 2.0, Standard deviation 1.584 %): -8.82%

Compound: CC(C)[C@H]1N(c2ncnc3[nH]ccc23)CC12CCOCC2
- inhibition (Concentration 49.75 uM, Number of replicates 2.0, Standard deviation 0.024 %): 27.6%
- inhibition (Concentration 99.5 uM, Number of replicates 2.0, Standard deviation 0.45 %): 48%

Compound: CC(C)(C[C@@H]1CCCN(c2ncnc3[nH]ccc23)C1)C(N)=O
- inhibition (Concentration 50.0 uM, Number of replicates 2.0, Standard deviation 4.235 %): -1.59%

Compound: c1ccc(-c2nc(CNc3cccnc3)cs2)nc1
- inhibition (Concentration 50.0 uM, Number of replicates 2.0, Standard deviation 0.432 %): -9.87%

Compound: O=C(Nc1cnn(C2CCNCC2)c1)c1ncnc2[nH]ccc12
- inhibition (Concentration 50.0 uM, Number of replicates 2.0, Standard deviation 5.148 %): -1.9%

Compound: CC(C)n1ncnc1CNc1cc2c(=O)nc[nH]c2cn1
- inhibition (Concentration 50.0 uM, Number of replicates 2.0, Standard deviation 0.347 %): -1.49%

Compound: C[C@@H](Nc1ncnc2[nH]ccc12)c1cnn(Cc2ccccc2)c1
- inhibition (Concentration 49.75 uM, Number of replicates 2.0, Standard deviation 0.659 %): -4.11%
- inhibition (Concentration 99.5 uM, Number of replicates 2.0, Standard deviation 0.985 %): 3.18%

Compound: C[C@@H](Nc1ncnc2[nH]ccc12)c1cnn(CC2CCC2)c1
- inhibition (Concentration 49.75 uM, Number of replicates 2.0, Standard deviation 1.153 %): -0.451%
- inhibition (Concentration 99.5 uM, Number of replicates 2.0, Standard deviation 1.366 %): 4.9%

Compound: COCc1cc(CC(=O)Nc2ncnc3[nH]cnc23)no1
- inhibition (Concentration 50.0 uM, Number of replicates 2.0, Standard deviation 0.215 %): 2.97%

Compound: CN(CCOc1ccccc1)c1ncnc2[nH]ccc12
- inhibition (Concentration 50.0 uM, Number of replicates 2.0, Standard deviation 4.668 %): -2.26%

Compound: OC[C@@]1(Cc2ccc(F)cc2)CCN(c2ncnc3[nH]ccc23)C1
- inhibition (Concentration 50.0 uM, Number of replicates 2.0, Standard deviation 2.787 %): 5.07%

Compound: O=C(N[C@H]1CCC[C@H]1C(=O)O)c1cnn2ccc(C3CCN(C(=O)c4ccccc4)CC3)cc12
- inhibition (Concentration 49.75 uM, Number of replicates 2.0, Standard deviation 2.492 %): 59.6%
- inhibition (Concentration 99.5 uM, Number of replicates 2.0, Standard deviation 0.074 %): 73.5%

Compound: CN1CCOc2cccc(NC(=O)Nc3cnc4[nH]ncc4c3)c21
- inhibition (Concentration 50.0 uM, Number of replicates 2.0, Standard deviation 1.985 %): -6.54%

Compound: O=C(CCN(Cc1cccc(Cl)c1)C(=O)c1ccccc1F)N1CCNCC1
- inhibition (Concentration 49.75 uM, Number of replicates 2.0, Standard deviation 0.399 %): -0.625%
- inhibition (Concentration 99.5 uM, Number of replicates 2.0, Standard deviation 0.282 %): 0.395%

Compound: O=C1CCN(C(=O)c2cnn3ccc(C4CCN(C(=O)c5ccccc5)CC4)cc23)CCN1
- inhibition (Concentration 49.75 uM, Number of replicates 2.0, Standard deviation 0.064 %): -2.4%
- inhibition (Concentration 99.5 uM, Number of replicates 2.0, Standard deviation 5.989 %): -7.81%

Compound: O=C(N[C@@H](C(=O)O)[C@@H](O)Cc1ccccc1)c1ncnc2[nH]ccc12
- inhibition (Concentration 49.75 uM, Number of replicates 2.0, Standard deviation 1.324 %): 3.79%
- inhibition (Concentration 99.5 uM, Number of replicates 2.0, Standard deviation 4.676 %): 12.3%

Compound: Cc1cccc([C@@H]2CCCN2c2ncnc3[nH]ccc23)n1
- inhibition (Concentration 50.0 uM, Number of replicates 2.0, Standard deviation 4.141 %): 0.182%

Compound: O=C(O)c1ccsc1C(=O)N1CCC(c2ccn3ncc(C(=O)N4CCCCC4)c3c2)CC1
- inhibition (Concentration 49.75 uM, Number of replicates 2.0, Standard deviation 4.674 %): 45%
- inhibition (Concentration 99.5 uM, Number of replicates 2.0, Standard deviation 0.647 %): 61.2%

Compound: O=C(OCc1ncccc1Cl)c1ncnc2[nH]ccc12
- inhibition (Concentration 50.0 uM, Number of replicates 2.0, Standard deviation 2.408 %): 5.06%

Compound: COc1cccc(NC(=O)c2ccc(NC(=O)Nc3ccccc3)cc2)n1
- inhibition (Concentration 49.75 uM, Number of replicates 2.0, Standard deviation 3.541 %): 4.65%
- inhibition (Concentration 99.5 uM, Number of replicates 2.0, Standard deviation 3.473 %): 5.37%

Compound: c1ccc([C@@H](CNc2ncnc3n[nH]cc23)N2CCOCC2)cc1
- inhibition (Concentration 50.0 uM, Number of replicates 2.0, Standard deviation 1.427 %): -0.781%

Compound: O=C(Cn1c(=O)[nH]c2ccccc21)Nc1cnc2[nH]ncc2c1
- inhibition (Concentration 50.0 uM, Number of replicates 2.0, Standard deviation 2.142 %): 1.78%

Compound: CN1CCC[C@H](NC(=O)c2cnn3ccc(C4CCN(C(=O)c5ccccc5)CC4)cc23)C1
- inhibition (Concentration 49.75 uM, Number of replicates 2.0, Standard deviation 0.821 %): -6.99%
- inhibition (Concentration 99.5 uM, Number of replicates 2.0, Standard deviation 3.447 %): -5.44%

Compound: COc1cc(Nc2ncnc3[nH]ccc23)ccc1NC(C)=O
- inhibition (Concentration 50.0 uM, Number of replicates 2.0, Standard deviation 12.002 %): -7.76%

Compound: Cc1nn(C)c(NCc2nc(CO)cs2)c1C#N
- inhibition (Concentration 50.0 uM, Number of replicates 2.0, Standard deviation 1.694 %): 2.1%
